# Experiments:
# passive Arthus reaction = assay: Effect on passive Arthus reaction in rats (hind paw swelling); format: in vivo, rat (Wistar strain, male); conditions: Rattus norvegicus, po, 3 h, read-out: Swelling inhibiting ratio; for inhibition in vivo at 100 mg/kg: 100 mg/kg orally, one hour before induction, hind paw volume measured three hours after induction, anti BSA rabbit serum / BSA, relative to control group
# Method: Effect on passive Arthus reaction in rats
# The rats which had been fasted for 18 hours were sensitized by injecting 0.3 ml of a 10% solution of an anti BSA rabbit serum (precipitation titer, 32 times) to them at the tail vein. […] On the other hand, only the vehicle was administered to the remainder of the test animals. [formula]
# mice = assay: Test for acute toxicity on mice; format: in vivo; conditions: one week after the administration, dead/tested
# Source text: Test for acute toxicity on mice
# Groups each consisting of 6 male mice of ddY strain weighing between 22 and 26 g were used in this experiment.
# Suspensions of the test compounds and indomethacin as the control in an 0.5% aqueous solution of tragacanth were orally administered respectively to the test animals, after which the test animals had been observed for a week to find the lethality thereof.
Structure (SMILES),inhibition in vivo at 100 mg/kg (passive Arthus reaction) [%],"Lethality (mice; 2,000 mg/kg orally)",further results
"O=C(O)CCCC1Cc2ccc(Cl)cc2C1=O (stereo not shown) [Example 2, 6-chloro-1-oxo-2,3-dihydro-2-indene butyric acid]",37.7,2/6,–
"O=C(O)CCCC1Cc2ccc(F)cc2C1=O (stereo not shown) [Example 1, 6-fluoro-1-oxo-2,3-dihydro-2-indene butyric acid]",26.7,1/6,–
"O=C(O)CCC1Cc2c(F)cccc2C1=O (stereo not shown) [Example 5, 4-fluoro-1-oxo-2,3-dihydro-2-indene propionic acid]",41.7,2/6,–
"O=C(O)CCCCC1Cc2c(Cl)cccc2C1=O (stereo not shown) [Example 14, 4-chloro-1-oxo-2,3-dihydro-2-indene valeric acid]",18.6,0/6,–
"O=C(O)CCC1Cc2ccc(Cl)cc2C1=O (stereo not shown) [Example 3, 6-chloro-1-oxo-2,3-dihydro-2-indene propionic acid]",13.7,–,–
"COc1ccc2c(c1)c(CC(=O)O)c(C)n2C(=O)c1ccc(Cl)cc1 [Indomethacin, indomethacin, reference compound]",–,–,inhibition in vivo at 5 mg/kg (passive Arthus reaction): 8.1%; Lethality (mice; 50 mg/kg orally): 6/6
"O=C(O)CCC1Cc2cc(Cl)ccc2C1=O (stereo not shown) [Example 8, 5-chloro-1-oxo-2,3-dihydro-2-indene propionic acid]",17.5,–,–
"O=C(O)CCCC1Cc2c(Cl)cccc2C1=O (stereo not shown) [Example 11, 4-chloro-1-oxo-2,3-dihydro-2-indene butyric acid]",13.9,–,–
"O=C(O)CCC1Cc2ccc(F)cc2C1=O (stereo not shown) [Example 6, 6-fluoro-1-oxo-2,3-dihydro-2-indene propionic acid]",39.4,2/6,"Lethality (mice; 500 mg/kg orally): 0/6; Lethality (mice; 1,000 mg/kg orally): 0/6"
"O=C(O)CCCCC1Cc2cc(Cl)ccc2C1=O (stereo not shown) [Example 15, 5-chloro-1-oxo-2,3-dihydro-2-indene valeric acid]",35.3,0/6,–
"O=C(O)CCCCC1Cc2ccc(Cl)cc2C1=O (stereo not shown) [Example 16, 6-chloro-1-oxo-2,3-dihydro-2-indene valeric acid]",16.2,–,–
"O=C(O)CCCC1Cc2c(Cl)cc(Cl)cc2C1=O (stereo not shown) [Example 13, 4,6-dichloro-1-oxo-2,3-dihydro-2-indene butyric acid]",22.5,1/6,–

# Source: patent US4443626A, “2,3-Dihydro-indene derivatives” (Hisamitsu Pharmaceutical Co., Inc., priority 1982, dated 1984)
